Results on 27 molecules are retold here after US6949542B2, “Dihydro-benzo[b][1,4]diazepin-2-one derivatives” (Hoffman-La Roche Inc., priority 2002, dated 2005).

Where two headings read alike, the source gives them in different places.

For data set [1], the target named is T1, rat mGlu2 receptor (Rattus norvegicus, UniProt P31421).
T1 construct: expressed in transfected cells; vector pcD1mGR2
As to the kind of experiment: [3H]-LY354740 binding on mGlu2 transfected CHO cell membranes.
Procedure: [^3H]-LY354740 Binding on mGlu2 Transfected CHO Cell Membranes
Transfection and Cell Culture
The cells were maintained in Dulbecco's Modified Eagle medium with reduced L-glutamine (2 mM final concentration) and 10% dialysed foetal calf serum from Gibco BRL (Basel, Switzerland).
Cells, cultured as above, were harvested and washed three times with cold PBS and frozen at −80° C. The pellet was resuspended in cold 20 mM HEPES-NaOH buffer containing 10 mM EDTA (pH 7.4), and homogenised with a polytron (Kinematica, AG, Littau, Switzerland) for 10 s at 10 000 rpm. After centrifugation for 30 min. at 4° C., the pellet was washed once with the same buffer, and once with cold 20 mM HEPES-NaOH buffer containing 0.1 mM EDTA, (pH 7.4). Protein content was measured using the Pierce method (Socochim, Lausanne, Switzerland) using bovine serum albumin as standard.
After thawing, the membranes were resuspended in cold 50 mM Tris-HCl buffer containing 2 mM MgCl2 and 2 mM CaCl2, (pH 7) (binding buffer). The final concentration of the membranes in the assays was 25 μg protein/ml. Inhibition experiments were performed with membranes incubated with 10 nM [^3H]-LY354740 at room temperature, for 1 hour, in presence of various concentrations of the compound to be tested. Following the incubations, membranes were filtered onto Whatmann GF/C glass fiber filters and washed 5 times with cold binding buffer. Non specific binding was measured in the presence of 10 μM DCG IV. After transfer of the filters into plastic vials containing 10 ml of Ultima-gold scintillation fluid (Packard, Zürich, Switzerland), the radioactivity was measured by liquid scintillation in a Tri-Carb 2500 TR counter (Packard, Zürich, Switzerland).
The inhibition curves were fitted with a four parameter logistic equation giving IC50 values, and Hill coefficients.

The mark [2] stands for this setting: inhibition of 10 nM [3H]-LY354740 binding, mGlu2 transfected CHO cell membranes, room temperature, 1 hour, read-out: Ki mGlu2.

T1 sequence (P31421 19-872): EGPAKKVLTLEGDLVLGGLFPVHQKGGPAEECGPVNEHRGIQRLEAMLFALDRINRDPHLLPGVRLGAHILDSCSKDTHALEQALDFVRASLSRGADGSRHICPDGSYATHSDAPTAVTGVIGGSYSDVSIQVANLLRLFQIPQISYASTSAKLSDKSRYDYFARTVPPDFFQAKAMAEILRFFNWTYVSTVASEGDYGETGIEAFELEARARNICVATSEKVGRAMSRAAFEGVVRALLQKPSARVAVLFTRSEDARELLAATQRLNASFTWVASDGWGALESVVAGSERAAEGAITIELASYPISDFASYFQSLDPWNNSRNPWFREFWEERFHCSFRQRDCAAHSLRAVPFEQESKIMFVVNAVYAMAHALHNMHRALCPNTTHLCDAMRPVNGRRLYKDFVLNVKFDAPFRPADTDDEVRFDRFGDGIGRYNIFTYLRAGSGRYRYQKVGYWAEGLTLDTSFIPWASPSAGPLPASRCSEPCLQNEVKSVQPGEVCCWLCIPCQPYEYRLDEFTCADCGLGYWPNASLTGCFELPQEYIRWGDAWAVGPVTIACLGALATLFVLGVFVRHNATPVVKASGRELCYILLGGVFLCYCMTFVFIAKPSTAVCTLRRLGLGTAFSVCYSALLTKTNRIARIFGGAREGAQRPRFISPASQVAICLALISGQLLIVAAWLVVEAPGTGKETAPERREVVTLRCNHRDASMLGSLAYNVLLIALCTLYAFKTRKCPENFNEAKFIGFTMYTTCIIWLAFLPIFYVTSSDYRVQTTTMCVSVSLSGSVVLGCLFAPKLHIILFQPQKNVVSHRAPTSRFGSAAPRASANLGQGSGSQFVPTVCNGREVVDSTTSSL

Turning to `Cc1cc2c(cc1Cl)NC(=O)CC(c1cccc(-c3ccnnc3)c1)=N2` [Example 48, 8-Chloro-7-methyl-4-(3-pyridazin-4-yl-phenyl)-1,3-dihydro-benzo[b][1,4]diazepin-2-one], the melting point – broadly, the temperature of the solid-liquid transition – was 240 °C (dec.). The Ki (usually a dissociation constant, usually derived from enzyme kinetics or from competition with a known ligand) in data set [1] (setting [2]) stood at 9.35 nM.

`CC(C)CNc1cc2c(cc1C(F)(F)F)NC(=O)CC(c1cccc(-c3ccncc3)c1)=N2` [Example 63, 7-Isobutylamino-4-(3-pyridin-4-yl-phenyl)-8-trifluoromethyl-1,3-dihydro-benzo[b][1,4]diazepin-2-one]: the melting point stood at 198 °C. Besides, in data set [1] (setting [2]), the Ki worked out at 19 nM.

The molecule `Cc1cc(-c2cccc(C3=Nc4cc(N(C)C)c(C(F)(F)F)cc4NC(=O)C3)c2)ccn1` [Example 78, 7-Dimethylamino-4-[3-(2-methyl-pyridin-4-yl)-phenyl]-8-trifluoromethyl-1,3-dihydro benzo[b][1,4]diazepin-2-one] came in with a melting point of 225 °C. The Ki in data set [1] (setting [2]) came out at 1.29 nM.

In the case of `CCCN(C)c1cc2c(cc1C(F)(F)F)NC(=O)CC(c1cccc(-c3ccnc(C)c3)c1)=N2` [Example 80, 7-(Methyl-propyl-amino)-4-[3-(2-methyl-pyridin-4-yl)-phenyl]-8-trifluoromethyl-1,3-dihydro benzo[b][1,4]diazepin-2-one], the melting point was 192 °C. The Ki in data set [1] (setting [2]) was 5.5 nM.

`Cc1cc2c(cc1C(F)(F)F)NC(=O)CC(c1cccc(-c3cnccn3)c1)=N2` [Example 87, 7-Methyl-4-(3-pyrazin-2-yl-phenyl)-8-trifluoromethyl-1,3-dihydro-benzo[b][1,4]diazepin-2-one] yielded a melting point of 237 °C. The Ki in data set [1] (setting [2]) is 10 nM.

For the molecule `O=C1CC(c2cccc(-c3cncnc3)c2)=Nc2cc(Cl)c(Cl)cc2N1` [Example 97, 7,8-Dichloro-4-(3-pyrimidin-5-yl-phenyl)-1,3-dihydro-benzo[b][1,4]diazepin-2-one], the melting point is 272 °C. In data set [1], this molecule displayed a Ki of 10.7 nM.

Regarding `Cc1cc2c(cc1Cl)NC(=O)CC(c1cccc(-c3cncnc3)c1)=N2` [Example 104, 8-Chloro-7-methyl-4-(3-pyrimidin-5-yl-phenyl)-1,3-dihydro-benzo[b][1,4]diazepin-2-one], the melting point amounted to 248 °C. Moreover, the Ki in data set [1] (setting [2]) was 8 nM.

The molecule `O=C1CC(c2cccc(-c3cncnc3)c2)=Nc2ccc(-c3ccccc3F)cc2N1` [Example 105, 8-(2-Fluoro-phenyl)-4-(3-pyrimidin-5-yl-phenyl)-1,3-dihydro-benzo[b][1,4]diazepin-2-one] had a melting point of 223 °C. In addition, in data set [1] (setting [2]), the Ki was found to be 6.2 nM.

Molecule `O=C1CC(c2cccc(-c3cnccn3)c2)=Nc2ccc(-n3cccc3)cc2N1` [Example 109, 4-(3-Pyrazin-2-yl-phenyl)-8-pyrrol-1-yl-1,3-dihydro-benzo[b][1,4]diazepin-2-one] returned a melting point of 214 °C. In addition, the Ki in data set [1] (setting [2]) was found to be 5.5 nM.

For the molecule `Cc1cncc(-c2cccc(C3=Nc4cc(C)c(C(F)(F)F)cc4NC(=O)C3)c2)n1` [Example 129, 7-Methyl-4-[3-(6-methyl-pyrazin-2-yl)-phenyl]-8-trifluoromethyl-1,3-dihydro-benzo[b][1,4]diazepin-2-one], the melting point came out at 233 °C. Besides, the Ki in data set [1] (setting [2]) is 3.1 nM.

On to `Cc1cc(-c2cccc(C3=Nc4cc(OCC(F)(F)F)c(C(F)(F)F)cc4NC(=O)C3)c2)c(C)cn1` [Example 138, 4-[3-(2,5-Dimethyl-pyridin-4-yl)-phenyl]-7-(2,2,2-trifluoro-ethoxy)-8-trifluoromethyl-1,3-dihydro-benzo[b][1,4]diazepin-2-one], for which the melting point is 202 °C. The Ki in data set [1] (setting [2]) was found to be 3.6 nM.

As to `CCc1cnc(C)cc1-c1cccc(C2=Nc3cc(C)c(Cl)cc3NC(=O)C2)c1` [Example 147, 8-Chloro-4-[3-(5-ethyl-2-methyl-pyridin-4-yl)-phenyl]-7-methyl-1,3-dihydro-benzo[b][1,4]diazepin-2-one], the melting point was 195 °C. In addition, the Ki in data set [1] (setting [2]) is 4.5 nM.

Molecule `Cc1cccc(-c2cccc(C3=Nc4cc(N(C)C)c(C(F)(F)F)cc4NC(=O)C3)c2)n1` [Example 160, 7-Dimethylamino-4-[3-(6-methyl-pyridin-2-yl)-phenyl]-8-trifluoromethyl-1,3-dihydro-benzo[b][1,4]diazepin-2-one] registered a melting point of 195 °C. The Ki in data set [1] (setting [2]) was 18.8 nM.

`O=C1CC(c2cccc(-c3cccnc3)c2)=Nc2ccc(OCC(F)(F)F)cc2N1` [Example 197, 4-(3-Pyridin-3-yl-phenyl)-8-(2,2,2-trifluoro-ethoxy)-1,3-dihydro-benzo[b][1,4]diazepin-2-one]: the melting point is 156 °C. For the same molecule, in data set [1] (setting [2]), the Ki was found to be 10 nM.

On to `N#Cc1cc(-c2cccc(C3=Nc4ccc(C(F)(F)F)cc4NC(=O)C3)c2)ccn1` [Example 198, 4-[3-(4-Oxo-7-trifluoromethyl-4,5-dihydro-3H-benzo[b][1,4]diazepin-2-yl)-phenyl]-pyridine-2-carbonitrile], for which the melting point fell in the range of 239 to 240 °C. The Ki in data set [1] (setting [2]) turned out to be 23.7 nM.

Take `COCCOc1cc2c(cc1C(F)(F)F)NC(=O)CC(c1cccc(-c3ccnc(C#N)c3)c1)=N2` [Example 209, 4-{3-[8-(2-Methoxy-ethoxy)-4-oxo-7-trifluoromethyl-4,5-dihydro-3H-benzo[b][1,4]diazepin-2-yl]-phenyl}-pyridine-2-carbonitrile]: the melting point was 212 to 213 °C. Also, the Ki in data set [1] (setting [2]) is 12.8 nM.

Turning to `Cc1cc(C2CC2)ncc1-c1cccc(C2=Nc3cc(C)c(C(F)(F)F)cc3NC(=O)C2)c1` [Example 246, 4-[3-(6-Cyclopropyl-4-methyl-pyridin-3-yl)-phenyl]-7-methyl-8-trifluoromethyl-1,3-dihydro-benzo[b][1,4]diazepin-2-one], the melting point is 195 °C. The Ki in data set [1] (setting [2]) was 16.9 nM.

As for `Cc1nccc(-c2cccc(C3=Nc4cc(N(C)C)c(C(F)(F)F)cc4NC(=O)C3)c2)n1` [Example 303, 7-Dimethylamino-4-[3-(2-methyl-pyrimidin-4-yl)-phenyl]-8-trifluoromethyl-1,3-dihydro-benzo[b][1,4]diazepin-2-one], the melting point is 211 to 212 °C. Further, the Ki in data set [1] (setting [2]) stood at 45 nM.

Turning to `Cc1cc(-c2cccc(C3=Nc4cc(C)c(C(F)(F)F)cc4NC(=O)C3)c2)nc(NCCO)n1` [Example 322, 4-{3-[2-(2-Hydroxy-ethylamino)-6-methyl-pyrimidin-4-yl]-phenyl}-7-methyl-8-trifluoromethyl-1,3-dihydro-benzo[b][1,4]diazepin-2-one], the melting point lay in the range of 228 to 230 °C. For the same molecule, the Ki in data set [1] (setting [2]) is 4 nM.

As to `COCCNc1nc(C)cc(-c2cccc(C3=Nc4cc(N(C)C)c(C(F)(F)F)cc4NC(=O)C3)c2)n1` [Example 326, 7-Dimethylamino-4-{3-[2-(2-methoxy-ethylamino)-6-methyl-pyrimidin-4-yl]-phenyl}-8-trifluoromethyl-1,3-dihydro-benzo[b][1,4]diazepin-2-one], the melting point was in the range of 200 to 203 °C. Besides, in data set [1] (setting [2]), the Ki is 8 nM.

`Cc1cc(-c2cccc(C3=Nc4cc(C)c(Cl)cc4NC(=O)C3)c2)nc(N2CCOCC2)n1` [Example 327, 8-Chloro-7-methyl-4-[3-(6-methyl-2-morpholin-4-yl-pyrimidin-4-yl)-phenyl]-1,3-dihydro-benzo[b][1,4]diazepin-2-one] returned a melting point of 252 to 256 °C. Moreover, the Ki in data set [1] (setting [2]) was 12 nM.

As for `O=C1CC(c2cccc(-c3ccc[n+]([O-])c3)c2)=Nc2cc(OCC(F)(F)F)c(C(F)(F)F)cc2N1` [Example 357, 4-[3-(1-Oxy-pyridin-3-yl)-phenyl]-7-(2,2,2-trifluoro-ethoxy)-8-trifluoromethyl-1,3-dihydro-benzo[b][1,4]diazepin-2-one], the melting point was found to be 226 °C. The Ki in data set [1] (setting [2]) was determined as 6.1 nM.

In turn, `CCOc1cc2c(cc1C(F)(F)F)NC(=O)CC(c1cccc(-c3cc[n+]([O-])c(C)c3)c1)=N2` [Example 359, 7-Ethoxy-4-[3-(2-methyl-1-oxy-pyridin-4-yl)-phenyl]-8-trifluoromethyl-1,3-dihydro-benzo[b][1,4]diazepin-2-one] showed a melting point of 227 °C. In data set [1] (setting [2]), the Ki came out at 26.5 nM.

`Cc1cc(-c2cccc(C3=Nc4cc(Cl)c(Cl)cc4NC(=O)C3)c2)cc(C)[n+]1[O-]` [Example 376, 7,8-Dichloro-4-[3-(2,6-dimethyl-1-oxy-pyridin-4-yl)-phenyl]-1,3-dihydro-benzo[b][1,4]diazepin-2-one] returned a melting point of 225 °C. The inhibition constant Ki in data set [1] (setting [2]) was 16.5 nM.

Molecule `Cc1cc2c(cc1C(F)(F)F)NC(=O)CC(c1cccc(-c3ccnc(N4CCOCC4)c3)c1)=N2` [Example 387, 7-Methyl-4-[3-(2-morpholin-4-yl-pyridin-4-yl)-phenyl]-8-trifluoromethyl-1,3-dihydro-benzo[b][1,4]diazepin-2-one] gave a melting point of 240 to 242 °C. The molecule further showed a Ki in data set [1] of 14.5 nM.

`O=C1CC(c2cccc(-c3ccnc(N4CCCC4)c3)c2)=Nc2cc(OCC(F)(F)F)c(C(F)(F)F)cc2N1` [Example 391, 4-[3-(2-Pyrrolidin-1-yl-pyridin-4-yl)-phenyl]-7-(2,2,2-trifluoro-ethoxy)-8-trifluoromethyl-1,3-dihydro-benzo[b][1,4]diazepin-2-one] came in with a melting point of 165 °C. The Ki in data set [1] (setting [2]) was found to be 7.9 nM.

`Cc1cc(-c2cccc(C3=Nc4cc(N(C)CC(C)C)c(Cl)cc4NC(=O)C3)c2)cc(C)n1` [Example 410, 8-Chloro-4-[3-(2,6-dimethyl-pyridin-4-yl)-phenyl]-7-(isobutyl-methyl-amino)-1,3-dihydro-benzo[b][1,4]diazepin-2-one] registered a melting point of 229 °C. The Ki in data set [1] (setting [2]) came to 3.25 nM.
